Measured values as given in patent US7579378B2, “Sulfonamido compounds that antagonize the vanilloid TRPV1 receptor” (Pharmeste S.R.L., priority 2004, dated 2009).

Assays:
[1] = molecular target: T1, TRPV1 expressing rat trigeminal neurons (Rattus norvegicus, UniProt O35433); test: Ca2+ fluorescence measurements in cultured rat trigeminal ganglia neurons (capsaicin-induced calcium mobilisation); assay type: cell-based; conditions: for IC50: against capsaicin (0.1 μM)-induced calcium mobilisation, 10 minutes incubation prior to capsaicin, mean and 95% fiducial limits
T1 construct: The ganglia were then dissociated into single cells; endogenous in cells; host or cells: primary cultured trigeminal ganglia neurons from newborn rats
T1 sequence (O35433 whole entry): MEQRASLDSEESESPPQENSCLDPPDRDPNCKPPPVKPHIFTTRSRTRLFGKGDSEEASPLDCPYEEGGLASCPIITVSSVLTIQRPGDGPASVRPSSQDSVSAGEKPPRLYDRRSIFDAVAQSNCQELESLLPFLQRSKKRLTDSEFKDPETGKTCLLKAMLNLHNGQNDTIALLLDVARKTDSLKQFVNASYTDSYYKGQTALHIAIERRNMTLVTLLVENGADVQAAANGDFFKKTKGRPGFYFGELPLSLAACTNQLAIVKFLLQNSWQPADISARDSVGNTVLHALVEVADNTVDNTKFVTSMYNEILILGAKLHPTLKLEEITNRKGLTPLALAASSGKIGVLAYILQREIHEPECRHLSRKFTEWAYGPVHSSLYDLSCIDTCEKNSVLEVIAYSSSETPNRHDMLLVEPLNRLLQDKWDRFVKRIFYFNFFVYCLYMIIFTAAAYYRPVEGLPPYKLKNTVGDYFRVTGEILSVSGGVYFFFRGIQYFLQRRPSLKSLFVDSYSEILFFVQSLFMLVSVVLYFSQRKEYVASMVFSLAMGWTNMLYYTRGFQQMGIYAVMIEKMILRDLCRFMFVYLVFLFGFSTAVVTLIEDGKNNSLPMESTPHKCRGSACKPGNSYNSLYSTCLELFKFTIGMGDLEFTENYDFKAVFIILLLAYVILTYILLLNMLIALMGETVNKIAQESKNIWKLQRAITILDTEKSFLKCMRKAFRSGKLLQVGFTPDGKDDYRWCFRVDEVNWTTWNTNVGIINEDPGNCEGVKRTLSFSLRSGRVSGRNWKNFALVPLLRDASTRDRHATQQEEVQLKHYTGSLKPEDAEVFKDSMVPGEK
Procedure: Newborn rats (2 days old) were terminally anaesthetized and decapitated. The trigeminal ganglia were removed and rapidly placed in cold phosphate buffered solution (PBS) before being transferred to collagenase/dispase (1 mg/ml dissolved in Ca^2+—Mg^2+-free PBS) for 35 min at 37° C. (Rigoni et al, 2003). After the enzymatic treatment ganglia were rinsed three times with Ca^2+—Mg^2+-free PBS and then placed in 2 ml of cold DMEM supplemented with 10% foetal bovine serum (FBS, heat inactivated), 2 mM L-glutamine, 100 u/ml penicillin and […] streptomycin. The ganglia were then dissociated into single cells by several passages through a series of syringe needles (23 G down to 25 G). Finally, the complex of medium and ganglia cells were sieved through a […] filter to remove debris and topped up with 8 ml of DMEM medium and centrifuged (200×g for 5 min). The final cell pellet was re-suspended in DMEM medium (supplemented with 100 ng/ml mouse Nerve Growth Factor (mouse-NGF-7S) and cytosine-b-D-arabino-furanoside free base (ARA-C) 2.5 mM). Cells were plated on poly-L-lysine (8.3 mM) and laminin (5 mM) coated 25 mm glass cover slips and kept for 2 to 5 days at 37° C. in a humidified incubator gassed with 5% CO2 and air. Plated neurons were loaded with Fura-2-AM-ester (3 μM) in Ca^2+ buffer solution of the following composition (mM): CaCl2 1.4, KCl 5.4, MgSO4 0.4, NaCl 135, D-glucose 5, HEPES 10 with BSA 0.1%, at pH 7.4, for 40 min at 37° C., washed twice with the Ca^2+ buffer solution and transferred to a chamber on the stage of Nikon eclipse TE300 microscope. The dye was excited at 340 and 380 nm to indicate relative [Ca^2+]i changes by the F340/F380 ratio recorded with a dynamic image analysis system (Laboratory Automation 2.0, RCS, Florence, Italy). Capsaicin (0.1 μM) and ionomycin (5 μM) were added to the chamber. A calibration curve using a buffer containing Fura-2-AM-ester and determinant concentrations of free Ca^2+ (Kudo et al., 1986) was used to convert the data obtained from F340/F380 ratio to [Ca^2+]i (nM).
The effects of all compounds were tested against capsaicin-induced calcium mobilisation. Antagonistic compounds were incubated for 10 minutes prior to the capsaicin challenge. The inhibitory effect of the TRPV1 antagonist, capsazepine, was also tested.

[2] = test system: capsaicin-induced wiping behaviour; test: Wiping test in rats (capsaicin-induced wiping); assay type: in vivo, rat
Procedure: The irritant effect (induction of wiping movements) of capsaicin was assessed by applying capsaicin 3 μg/eye (10 μl) on the rat conjunctiva and the number of wiping movements was recorded during the 60 sec period that followed the application. In other set of experiments, rats were treated intraperitoneally with diverse doses of 14 and capsaicin-induced wiping was studied.

[3] = molecular target: T2, TRPV1 receptor expressed in rat spinal cord (Rattus norvegicus, UniProt O35433); test: [3H]-RTX competition binding assay; conditions: for Ki: [3H]-RTX (0.4 nM) competition, rat spinal cord membranes, mean and 95% fiducial limits; for affinity for the TRPV1 receptor: in vitro, summary statement
T2 construct: spinal cord was removed and disrupted using a Polytron tissue homogenizer; from tissue; host or cells: rat spinal cord membranes (Sprague-Dawley)
T2 sequence (O35433 whole entry): as above
Procedure: Male Sprague-Dawley rats with body weight between 250 to 350 g at the time for testing were used. For binding assays rats were sacrificed by decapitation under anesthesia and spinal cord was removed and disrupted using a Polytron tissue homogenizer in ice cold buffer containing 5 mM KCl, 5.8 mM NaCl, 0.75 mM CaCl2, 2 mM MgCl2, 320 mM sucrose, 10 mM Hepes, pH 8.6 (Szallasi and Blunberg, 1992; 1993). Tissue homogenized was centrifuged at 1000×g for 10 min at 4° C. and the sumatant was centrifuged again at 35000×g for 30 min at 4° C. (Beckman Avanti J25). The pellet was resuspended in the same buffer as described above and used in binding experiments. In saturation experiments, 150 μg protein/sample from membrane suspensions were incubated with ([^3H]-Resiniferatoxin, Perkin Elmer, Boston, Mass.) [^3H]-RTX (0.003-3 nM) in the assay buffer containing 0.25 mg/ml fatty acid-free bovine serum albumin at 37° C. for 60 min. In competition experiments, the membranes were incubated at 37° C. for 60 min with [^3H]RTX (0.4 nM) and increasing concentrations of examined compounds in the range from 0.1 nM to 3 μM. Non specific binding was defined in the presence of 1 μM RTX. After incubation the reaction mixture was cooled at 0° C. and incubated with bovine α1-acid glycoprotein (200 μg per tube) for 15 min to reduce non-specific RTX binding. Membrane-bound RTX was separated from the free through the centrifugation of the samples at 18500×g for 15 min. The tip of the microcentrifuge tube containing the pellet was cut off and the radioactivity was determined by scintillation counting (Packard 2500 TR). The protein concentration was determined according to a Bio-Rad method with bovine serum albumin as a standard reference (Bradford, 1976). Saturation and competition studies were analyzed with the program Ligand (Munson and Rodbard, 1980).

Structure (SMILES)	melting point	IC50 [1]	Ki [3]	affinity for the TRPV1 receptor [3]	further results
COc1cc(CNC(=O)CCCC/C=C/C(C)C)ccc1O [Capsaicin, capsaicin, reference compound]	–	–	–	–	rat trigeminal neuronal cells showing an increase in [Ca2+]i ([1]; capsaicin 0.1 μM): 87%
Oc1cc2c(cc1O)CN(C(=S)NCCc1ccc(Cl)cc1)CCC2 [Capsazepine, capsazepine, reference compound]	–	2170 nM	–	–	–
COc1cc(CNS(=O)(=O)c2ccc(NC(=S)NCc3ccc(C(C)(C)C)cc3)cc2)c(I)cc1O [Compound 14, N-(4-t-butyl-benzyl)-N′-[4-(2-iodo-4-hydroxy-5-methoxy-benzyl)aminosulfonyl]phenyl thiourea]	–	60 nM	90 nM	significantly greater than that of the classic TRPV1 receptor antagonist, capsazepine	inhibition of capsaicin-induced wiping behaviour ([2]; 1 mg/kg intraperitoneal, 60 minutes prior to the capsaicin challenge (3 μg/eye)): 24%; effect on capsaicin-induced wiping behaviour ([2]; intraperitoneal, 60 minutes prior to the capsaicin challenge, diverse doses): dose dependent reduction
COc1cc(CNS(=O)(=O)c2ccc(NC(=S)NCc3ccc(C(C)(C)C)cc3)cc2)c(Br)cc1O [Compound 20, N-(4-t-butyl-benzyl)-N′-[4-(2-bromo-4-hydroxy-5-methoxy-benzyl)aminosulfonyl]phenyl thiourea]	–	212 nM	493 nM	high affinity	–

Continued, in another order:

melting point	Structure (SMILES)	IC50 [1]	Ki [3]	affinity for the TRPV1 receptor [3]	further results
122 °C	COc1cc(CNS(=O)(=O)c2ccc(NC(=S)NCc3ccc(C(F)(F)F)cc3)cc2)c(Cl)cc1O [Compound 19, N-(4-trifluoromethyl-benzyl)-N′-[4-(2-chloro-4-hydroxy-5-methoxy-benzyl)aminosulfonyl]phenyl thiourea]	270 nM	756 nM	high affinity	–
195 °C	COc1cc(CNS(=O)(=O)c2ccc(CCNC(=S)NCc3ccc(C(C)(C)C)cc3)cc2)c(I)cc1O [Compound 32, N-(4-t-butyl-benzyl)-N′-[4-(2-iodo-4-hydroxy-5-methoxy-benzyl)aminosulfonyl-2-phenylethyl]thiourea]	–	–	–	–
186 °C	COc1cc(CNS(=O)(=O)c2ccc(CCNC(=S)NCc3ccc(C(F)(F)F)cc3)cc2)c(I)cc1O [Compound 33, N-(4-trifluoromethyl-benzyl)-N′-[4-(2-iodo-4-hydroxy-5-methoxy-benzyl)aminosulfonyl-2-phenylethyl]thiourea]	–	–	–	–
